The target in assay [1] is T1, human androgen receptor (Homo sapiens, UniProt P10275).
T1 construct: expressed in transfected cells; host or cells: HEK293
T1 sequence (P10275 1-920): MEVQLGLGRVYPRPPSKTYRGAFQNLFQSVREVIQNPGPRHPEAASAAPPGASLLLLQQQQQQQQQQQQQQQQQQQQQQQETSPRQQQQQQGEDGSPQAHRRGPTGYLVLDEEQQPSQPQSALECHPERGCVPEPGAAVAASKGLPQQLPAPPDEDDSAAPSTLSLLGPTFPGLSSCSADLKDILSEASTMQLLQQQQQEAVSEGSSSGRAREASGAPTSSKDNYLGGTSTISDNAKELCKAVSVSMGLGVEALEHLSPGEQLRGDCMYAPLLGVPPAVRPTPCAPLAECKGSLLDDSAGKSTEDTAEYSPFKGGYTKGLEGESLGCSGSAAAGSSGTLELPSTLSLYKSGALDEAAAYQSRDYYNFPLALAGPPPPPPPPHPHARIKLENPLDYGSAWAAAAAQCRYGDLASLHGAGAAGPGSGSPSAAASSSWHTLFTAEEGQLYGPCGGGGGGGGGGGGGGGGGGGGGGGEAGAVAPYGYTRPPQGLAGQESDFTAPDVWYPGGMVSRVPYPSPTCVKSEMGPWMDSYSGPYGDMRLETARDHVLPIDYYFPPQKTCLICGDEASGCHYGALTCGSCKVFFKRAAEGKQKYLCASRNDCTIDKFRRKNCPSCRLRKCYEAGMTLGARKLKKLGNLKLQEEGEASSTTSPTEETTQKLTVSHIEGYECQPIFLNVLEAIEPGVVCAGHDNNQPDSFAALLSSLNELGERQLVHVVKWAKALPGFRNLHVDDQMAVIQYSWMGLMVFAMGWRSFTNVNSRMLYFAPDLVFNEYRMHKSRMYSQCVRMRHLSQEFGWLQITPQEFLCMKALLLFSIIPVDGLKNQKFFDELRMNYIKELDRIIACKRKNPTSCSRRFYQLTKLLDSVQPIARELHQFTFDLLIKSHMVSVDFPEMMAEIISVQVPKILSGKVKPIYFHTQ
Nature of the assay: Reporter assay of an androgen receptor responsive sequence (luciferase, transiently transfected HEK293 cells). It is filed as cell-based. The following applies: 24 hours incubation, relative to activity of 100 nM DHT, read-out: AR transcriptive activity (pEC50) (converted). An outline of the steps: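 HEK293 cells transiently transfected for 3 h with ARE-firefly luciferase, full-length human AR and TK-Renilla plasmids, then exposed to compound for 24 h at 37 °C in 5% charcoal-treated FBS/DMEM. Dual-Glo luminescence read; pEC50 from 4-parameter fit relative to 100 nM DHT.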

Assay [2] deals with T2, androgen receptor (AR-LBD) (Rattus norvegicus, UniProt P15207).
T2 construct: 5 μL of 2×AR-LBD/Fluoromone AL Red Complex contained in the kit; purchased Invitrogen
T2 sequence (P15207 651-882 limits assumed): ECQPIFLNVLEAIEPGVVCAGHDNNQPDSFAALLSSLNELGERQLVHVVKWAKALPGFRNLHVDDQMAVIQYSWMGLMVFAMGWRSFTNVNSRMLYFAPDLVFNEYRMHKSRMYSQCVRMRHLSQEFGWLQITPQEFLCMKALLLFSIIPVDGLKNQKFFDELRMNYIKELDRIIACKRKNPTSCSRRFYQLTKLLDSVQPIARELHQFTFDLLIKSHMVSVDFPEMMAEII
Kind of assay: Evaluation of androgen receptor affinity (PolarScreen Androgen Receptor Competitor Assay Kit, Red; fluorescence polarization). Conditions: 22° C. for 5 hours, relative to binding rate of 1 μM DHT, read-out: AR affinity (pEC50) (converted). The essentials:
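pEC50 values reflect tracer displacement from AR-LBD (Fluoromone AL Red complex) measured by fluorescence polarization after 5 h at 22° C, normalized to 1 μM DHT and fitted with a 4-parameter model.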
(In general: Fluorescence polarisation rises when a labelled molecule tumbles more slowly, as on binding a larger partner.)

Consider `COCCOc1ccc(CN(c2ccc(C#N)cc2)c2nc(C(=O)NS(C)(=O)=O)c(C)s2)cc1` [Compound 566, 2-[4-cyano-N-[[4-(2-methoxyethoxy)phenyl]methyl]anilino]-5-methyl-N-methylsulfonyl-thiazole-4-carboxamide], for which the EC50 in assay [1] was 1580 nM; in assay [2] it was 200 nM.
Taken in the same sequence, the figures for `Cc1sc(N(Cc2ccc(OCc3cccnc3)cc2)c2ccc(C#N)cc2)nc1C(=O)NS(C)(=O)=O` [Compound 567, 2-[4-cyano-N-[[4-(3-pyridylmethoxy)phenyl]methyl]anilino]-5-methyl-N-methylsulfonyl-thiazole-4-carboxamide] were over 10000 nM and 100 nM.
`Cc1sc(N(Cc2ccc(OCc3ccccn3)cc2)c2ccc(C#N)cc2)nc1C(=O)NS(C)(=O)=O` [Compound 568, 2-[4-cyano-N-[[4-(2-pyridylmethoxy)phenyl]methyl]anilino]-5-methyl-N-methylsulfonyl-thiazole-4-carboxamide]: the EC50 in assay [1] was 794 nM; in assay [2], 158 nM.
For `Cc1sc(N(Cc2ccc(OCc3ccncc3)cc2)c2ccc(C#N)cc2)nc1C(=O)NS(C)(=O)=O` [Compound 571, 2-[4-cyano-N-[[4-(4-pyridylmethoxy)phenyl]methyl]anilino]-5-methyl-N-methylsulfonyl-thiazole-4-carboxamide] the same measures were over 10000 nM and 158 nM.
Taken in the same sequence, the figures for `Cc1sc(N(Cc2ccc(OCC3CCOCC3)cc2)c2ccc(C#N)cc2)nc1C(=O)NS(C)(=O)=O` [Compound 576, 2-[4-cyano-N-[[4-(tetrahydropyran-4-ylmethoxy)phenyl]methyl]anilino]-5-methyl-N-methylsulfonyl-thiazole-4-carboxamide] were 1260 nM and 63.1 nM.
Taken in the same sequence, the figures for `Cc1sc(N(Cc2ccc(OCC(F)F)cc2)c2ccc(C#N)cc2)nc1C(=O)NS(C)(=O)=O` [Compound 577, 2-[4-cyano-N-[[4-(2,2-difluoroethoxy)phenyl]methyl]anilino]-5-methyl-N-methylsulfonyl-thiazole-4-carboxamide] were 501 nM and 63.1 nM.
For `Cc1sc(N(Cc2ccc(OCCCO)cc2)c2ccc(C#N)cc2)nc1C(=O)NS(C)(=O)=O` [Compound 579, 2-[4-cyano-N-[[4-(3-hydroxypropoxy)phenyl]methyl]anilino]-5-methyl-N-methylsulfonyl-thiazole-4-carboxamide], the EC50 in assay [1] is 7940 nM; in assay [2] it was 200 nM.
For `Cc1sc(N(Cc2ccc(OCC(F)(F)F)cc2)c2ccc(C#N)cc2)nc1C(=O)NS(C)(=O)=O` [Compound 580, 2-[4-cyano-N-[[4-(2,2,2-trifluoroethoxy)phenyl]methyl]anilino]-5-methyl-N-methylsulfonyl-thiazole-4-carboxamide] the same measures were 631 nM and 25.1 nM.
Take `Cc1sc(N(Cc2ccc(OC3CCCC3)cc2)c2ccc(C#N)cc2)nc1C(=O)NS(C)(=O)=O` [Compound 581, 2-[4-cyano-N-[[4-(cyclopentoxy)phenyl]methyl]anilino]-5-methyl-N-methylsulfonyl-thiazole-4-carboxamide]: the EC50 in assay [1] was 501 nM; in assay [2], 25.1 nM.
Taken in the same sequence, the figures for `COCCCOc1ccc(CN(c2ccc(C#N)cc2)c2nc(C(=O)NS(C)(=O)=O)c(C)s2)cc1` [Compound 582, 2-[4-cyano-N-[[4-(3-methoxypropoxy)phenyl]methyl]anilino]-5-methyl-N-methylsulfonyl-thiazole-4-carboxamide] were 794 nM and 39.8 nM.
Taken in the same sequence, the figures for `COC[C@@H](C)Oc1ccc(CN(c2ccc(C#N)cc2)c2nc(C(=O)NS(C)(=O)=O)c(C)s2)cc1` [Compound 583, 2-[4-cyano-N-[[4-[(1R)-2-methoxy-1-methyl-ethoxy]phenyl]methyl]anilino]-5-methyl-N-methylsulfonyl-thiazole-4-carboxamide] were 2000 nM and 39.8 nM.
Taken in the same sequence, the figures for `COC[C@H](C)Oc1ccc(CN(c2ccc(C#N)cc2)c2nc(C(=O)NS(C)(=O)=O)c(C)s2)cc1` [Compound 584, 2-[4-cyano-N-[[4-[(1S)-2-methoxy-1-methyl-ethoxy]phenyl]methyl]anilino]-5-methyl-N-methylsulfonyl-thiazole-4-carboxamide] were 3160 nM and 79.4 nM.
Take `Cc1sc(N(Cc2cccc(OC(C)C)c2)c2ccc(C#N)cc2)nc1C(=O)NS(C)(=O)=O` [Compound 585, 2-[4-cyano-N-[(3-isopropoxyphenyl)methyl]anilino]-5-methyl-N-methylsulfonyl-thiazole-4-carboxamide]: the EC50 in assay [1] was 501 nM; in assay [2] it was 79.4 nM.
With `Cc1sc(N(Cc2cccc(OCC(C)C)c2)c2ccc(C#N)cc2)nc1C(=O)NS(C)(=O)=O` [Compound 586, 2-[4-cyano-N-[(3-isobutoxyphenyl)methyl]anilino]-5-methyl-N-methylsulfonyl-thiazole-4-carboxamide], the values for the EC50 in assay [1] and in assay [2] were 7940 nM and 79.4 nM, respectively.
For `Cc1sc(N(Cc2ccc(C3CC3)cc2)c2ccc(C#N)cc2)nc1C(=O)NS(C)(=O)=O` [Compound 588, 2-[4-cyano-N-[(4-cyclopropylphenyl)methyl]anilino]-5-methyl-N-methylsulfonyl-thiazole-4-carboxamide] the same measures were 200 nM and 31.6 nM.
For `Cc1sc(N(Cc2ccc(N3CCCC3=O)cc2)c2ccc(C#N)cc2)nc1C(=O)NS(C)(=O)=O` [Compound 589, 2-[4-cyano-N-[[4-(2-oxopyrrolidin-1-yl)phenyl]methyl]anilino]-5-methyl-N-methylsulfonyl-thiazole-4-carboxamide] the same measures were over 10000 nM and 1000 nM.
As to `Cc1sc(N(Cc2ccc(-c3ccccc3F)cc2)c2ccc(C#N)cc2)nc1C(=O)NS(C)(=O)=O` [Compound 590, 2-[4-cyano-N-[[4-(2-fluorophenyl)phenyl]methyl]anilino]-5-methyl-N-methylsulfonyl-thiazole-4-carboxamide], the figures for the EC50 in assay [1] and in assay [2] were 158 nM and 31.6 nM, respectively.
Turning to `Cc1sc(N(Cc2ccc(-c3ccccc3F)nc2)c2ccc(C#N)cc2)nc1C(=O)NS(C)(=O)=O` [Compound 591, 2-[4-cyano-N-[[6-(2-fluorophenyl)-3-pyridyl]methyl]anilino]-5-methyl-N-methylsulfonyl-thiazole-4-carboxamide], the EC50 in assay [1] was 794 nM; in assay [2] it was 158 nM.
`Cc1sc(N(Cc2ccc(-c3ccc(F)cc3)nc2)c2ccc(C#N)cc2)nc1C(=O)NS(C)(=O)=O` [Compound 592, 2-[4-cyano-N-[[6-(4-fluorophenyl)-3-pyridyl]methyl]anilino]-5-methyl-N-methylsulfonyl-thiazole-4-carboxamide]: the values for the EC50 in assay [1] and in assay [2] were 794 nM and 100 nM, respectively.
In the case of `Cc1sc(N(Cc2ccc(C3CC3)nc2)c2ccc(C#N)cc2)nc1C(=O)NS(C)(=O)=O` [Compound 593, 2-[4-cyano-N-[(6-cyclopropyl-3-pyridyl)methyl]anilino]-5-methyl-N-methylsulfonyl-thiazole-4-carboxamide], the EC50 in assay [1] was 200 nM; in assay [2], 251 nM.
For `Cc1sc(N(Cc2ccc(-c3ccccc3F)cn2)c2ccc(C#N)cc2)nc1C(=O)NS(C)(=O)=O` [Compound 594, 2-[4-cyano-N-[[5-(2-fluorophenyl)-2-pyridyl]methyl]anilino]-5-methyl-N-methylsulfonyl-thiazole-4-carboxamide] the same measures were 1580 nM and 79.4 nM.
For `Cc1sc(N(Cc2ccc(-c3ccc(F)cc3)cn2)c2ccc(C#N)cc2)nc1C(=O)NS(C)(=O)=O` [Compound 595, 2-[4-cyano-N-[[5-(4-fluorophenyl)-2-pyridyl]methyl]anilino]-5-methyl-N-methylsulfonyl-thiazole-4-carboxamide] the same measures were 1260 nM and 100 nM.
